The supplement of paper PMC10307832

Legend:
Test in all cases: relative viability (nuclei count vs DMSO), 5 days (fraction); higher = more cells survive
XMD8-85 + Trametinib = compound: CN1CCN(CC1)C2=CC(=C(C=C2)NC3=NC=C4C(=N3)N(C5=CC=CC=C5C(=O)N4C)C)OC [XMD8-85] + CC(=O)Nc1cccc(-n2c(=O)n(C3CC3)c(=O)c3c(Nc4ccc(I)cc4F)n(C)c(=O)c(C)c32)c1 [Trametinib] (partner 0.02 µM)
In short: (§1)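 Lung cancer cell lines, seeded in 1536-well plates, were treated the following day by pin tool with a single drug or with five library-drug doses (not always all listed) in √10 steps on top of a fixed anchor-drug dose. Cells were fixed and nuclei stained in one step after 5 days, and nuclei were counted. Relative viability is the nuclei count for treated wells divided by that for vehicle wells, reported as medians of duplicate plates.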

4EGI-1 + Decitabine = compound: O=C(O)C(Cc1ccccc1[N+](=O)[O-])=NNc1nc(-c2ccc(Cl)c(Cl)c2)cs1 (mixture of isomers) [4EGI-1] + Nc1ncn([C@H]2C[C@H](O)[C@@H](CO)O2)c(=O)n1 [Decitabine] (partner 2 µM)
In short: as §1

4EGI-1 + Pictilisib = compound: O=C(O)C(Cc1ccccc1[N+](=O)[O-])=NNc1nc(-c2ccc(Cl)c(Cl)c2)cs1 (mixture of isomers) [4EGI-1] + CS(=O)(=O)N1CCN(Cc2cc3nc(-c4cccc5[nH]ncc45)nc(N4CCOCC4)c3s2)CC1 [Pictilisib] (partner 1 µM)
In short: as §1

XMD8-85 + AZD7762 = compound: CN1CCN(CC1)C2=CC(=C(C=C2)NC3=NC=C4C(=N3)N(C5=CC=CC=C5C(=O)N4C)C)OC [XMD8-85] + NC(=O)Nc1cc(-c2cccc(F)c2)sc1C(=O)N[C@H]1CCCNC1 [AZD7762] (partner 0.2 µM)
In short: as §1

NCI-H1792
relative viability (XMD8-85 + Trametinib; first compound 0.253 µM): 0.483 | relative viability (XMD8-85 + Trametinib; first compound 0.8 µM): 0.308 | relative viability (XMD8-85 + Trametinib; first compound 2.53 µM): 0.463 | relative viability (XMD8-85 + Trametinib; first compound 8 µM): 0.271 | relative viability (4EGI-1 + Decitabine; first compound 0.5 µM): 0.568 | relative viability (4EGI-1 + Decitabine; first compound 1.581 µM): 0.715 | relative viability (4EGI-1 + Decitabine; first compound 5 µM): 0.6 | relative viability (4EGI-1 + Decitabine; first compound 15.81 µM): 0.488 | relative viability (4EGI-1 + Decitabine; first compound 50 µM): 0.369 | relative viability (4EGI-1 + Pictilisib; first compound 0.5 µM): 0.321 | relative viability (4EGI-1 + Pictilisib; first compound 1.581 µM): 0.209 | relative viability (4EGI-1 + Pictilisib; first compound 5 µM): 0.257 | relative viability (4EGI-1 + Pictilisib; first compound 15.81 µM): 0.214 | relative viability (4EGI-1 + Pictilisib; first compound 50 µM): 0.145 | relative viability (XMD8-85 + AZD7762; first compound 0.8 µM): 0.647 | relative viability (XMD8-85 + AZD7762; first compound 2.53 µM): 0.694 | relative viability (XMD8-85 + AZD7762; first compound 8 µM): 0.574
